Entries after “also recorded” stand apart in the source; their conditions may differ.
Test system: cardiac sympathetic neurons of the isolated rat heart
Experiment: Kinetics of [11C]phenethylguanidines in isolated perfused working rat heart (neuronal uptake and clearance)
Conditions: for half-life / Major Clearance Rate T1/2: rat
Excerpt: To evaluate radiolabeled phenethylguanidines as imaging agents for nuclear medicine, several [^11C]-labeled phenethylguanidines were synthesized and initial bioevaluations of these compounds performed using an isolated rat heart preparation. […] [^11C]-labeling was used to initially assess the imaging properties of these compounds for the following reasons. A radiosynthetic method for making [^11C]guanidines (see, e.g., Westerberg, G. and Langstrom, B. (1997) J. Labeled Compds. Radiopharm. 39:525-529; herein incorporated by reference in its entirety), allowed efficient synthesis and evaluation of these compounds.
The present invention is not limited to a particular mechanism. Indeed, an understanding of the mechanism is not necessary to practice the present invention. […] Provided below is a detailed description of how these specific kinetic properties offer a significant advantage over currently available sympathetic nerve radiotracers.

Compound	Neuronal Uptake Rate Kup (isolated rat heart)	Major Clearance Rate T1/2	neuronal retention / clearance (in words) (isolated rat heart)	other results
2-[^18F]fluoro-2-deoxy-D-glucose [FDG, reference compound]	–	–	–	myocardial uptake rate (isolated rat heart, 10 mM glucose, no insulin, 10 min constant infusion, FIG. 5): 0.31 ml/min/g wet
CNC[C@H](O)c1ccc(O)c(O)c1 [EPI, [^11C]epinephrine, reference compound]	0.60 mL/min/g	–	–	half-life: 26.3 h
C[C@H](N[11CH3])[C@H](O)c1cccc(O)c1 [HED, [^11C]meta-hydroxyephedrine, reference compound]	2.35 mL/min/g	–	–	–
N=[11C](N)NCCc1ccccc1 [I-1, [^11C]phenethylguanidine]	1.56 mL/min/g	3.33 h	–	–
N=[11C](N)NC[C@H](O)c1ccccc1 [I-2, [^11C](−)-β-hydroxyphenethylguanidine]	0.42 mL/min/g	19.3 h	–	–
COc1ccc(CCN[11C](=N)N)cc1 [I-3, [^11C]para-methoxy-phenethylguanidine]	0.73 mL/min/g	2.28 h	–	–
N=[11C](N)NCCc1cccc(O)c1 [I-4, [^11C]meta-hydroxyphenethylguanidine]	2.12 mL/min/g	trapped	efficient vesicular storage; also recorded: very long retention times	neuronal uptake rate (in words) (isolated rat heart): fast and rapid
N=[11C](N)NCCc1ccc(O)cc1 [I-5, [^11C]para-hydroxyphenethylguanidine]	1.92 mL/min/g	48.13 h	efficient vesicular storage; also recorded: very long retention times	neuronal uptake rate (in words) (isolated rat heart): fast and rapid; neuronal retention / clearance (in words) (isolated rat heart, listed as PHPG): well retained
N=[11C](N)NCCc1ccc(O)c(O)c1 [I-6, [^11C]3,4-dihydroxyphenethylguanidine]	1.07 mL/min/g	23.52 h	–	–
N=[11C](N)NCC(O)c1cccc(O)c1 (stereo not drawn) [I-7, N-[^11C]guanyl-meta-octopamine]	0.28 mL/min/g	216.67 h	very long neuronal retention times	neuronal uptake rate (in words) (isolated rat heart): slow and slower than all currently used tracers; neuronal uptake rate (isolated rat heart, 10 min constant infusion, FIG. 5): 0.28 ml/min/g wet; neuronal retention / clearance (in words) (isolated rat heart, listed as GMO): well retained; also recorded: neuronal trapping of GMO is more efficient than the myocardial trapping of FDG
N=[11C](N)NC[C@H](O)c1ccc(O)c(O)c1 [I-8, N-[^11C]guanyl-norepinephrine]	0.09 mL/min/g	–	–	–
C[C@H](N[11C](=N)N)[C@H](O)c1cccc(O)c1 [I-9, N-[^11C]guanyl-(−)-metaraminol]	0.08 mL/min/g	20.18 h	very long neuronal retention times	neuronal uptake rate (in words) (isolated rat heart): slow and slower than all currently used tracers
N=[11C](N)NCCc1cccc(F)c1 [II-1, [^11C]meta-fluorophenethylguanidine]	0.24 mL/min/g	1.93 h	–	–
N=[11C](N)NCCc1ccc(F)cc1 [II-2, [^11C]para-fluorophenethylguanidine]	0.63 mL/min/g	4.43 h	–	–
N=[11C](N)NCCc1ccccc1F [II-3, [^11C]ortho-fluorophenethylguanidine]	1.76 mL/min/g	2.25 h	–	–
N=[11C](N)NCCc1ccc(F)c(O)c1 [II-4, [^11C]para-fluoro-meta-hydroxy-phenethylguanidine]	0.77 mL/min/g	trapped	very long neuronal retention times	–
N=[11C](N)NCCc1cc(O)ccc1F [II-5, [^11C]ortho-fluoro-meta-hydroxy-phenethylguanidine]	0.54 mL/min/g	20.12 h	very long neuronal retention times	–
N=[11C](N)NCCc1cccc(I)c1 [III-1, [^11C]meta-iodophenethylguanidine]	1.10 mL/min/g	2.38 h	approximately the same rate as MIBG	neuronal uptake rate, times slower than MIBG (isolated rat heart, relative to MIBG): around 3 times
NC(N)=NCc1cccc(I)c1 [MIBG, [^11C]meta-iodobenzylguanidine, reference compound]	3.65 mL/min/g	–	–	neuronal uptake rate (in words) (isolated rat heart): very rapid
NC[C@H](O)c1ccc(O)c(O)c1 [NE, [^3H]norepinephrine, reference compound]	4.44 mL/min/g	–	–	half-life: > 16.7 h
CNC[C@H](O)c1cccc(O)c1 [PHEN, [^11C]phenylephrine, reference compound]	0.72 mL/min/g	–	–	half-life: 1.63 h

Reference: US7534418B2, “Imaging agents” (The Regents of the University of Michigan, priority 2004, dated 2009)
